For twelve compounds, CC50, IC50 and EC50 results are on record in US20220380347A1, “INHIBITORS OF CYSTEINE PROTEASES AND METHODS OF USE THEREOF” (Pardes Biosciences, Inc., priority 2020, published 2022).

Read-outs that look alike come from different tables or passages of the source.

The test system of data set [1] is cells without virus infection. The experiment in a line: Cytotoxicity in parallel to the 229E CPE assay, without virus infection, CellTiter Glo. Particulars: read-out: 229E CC50; without virus infection.
Method: (§1) Reagents and instruments used in this assay include luminescent cell viability assay kit CellTiter Glo (Promega) and Microplate Reader Synergy2 (BioTek).
(§2) The cytotoxicity of compounds was assessed under the same conditions, but without virus infection, in parallel. Cell viability was measured with CellTiter Glo. The antiviral activity and cytotoxicity of compounds were expressed as % Inhibition and % Viability, respectively, and calculated with formulas.
The target in data set [2] is COVID-19 (nCoV-2019, SARS-CoV2) Mpro (Severe acute respiratory syndrome coronavirus 2, UniProt P0DTD1). The experiment in a line: COVID-19 (nCoV-2019, SARS-CoV2) Mpro enzymatic assay. The class given is biochemical. Particulars: 25 nM Mpro, 25 μM substrate; read-out: COVID-19 Mpro IC50.
Another data set deals with HCoV 229E. Nature of the data set: HCoV 229E cytopathic effect (CPE) assay, CellTiter Glo. The class given is cell-based, human coronavirus (HCov) 229E. The note with it: protection of virus-induced CPE.
The next data set concerns the target 229E Mpro (Human coronavirus 229E, UniProt P0C6X1). The experiment in a line: 229E Mpro enzymatic assay (standard methods, SARS-CoV2 Mpro assay given as exemplary). The data set is classed as biochemical, human coronavirus (HCov) 229E. Summed up:
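Run by standard methods, with the SARS-CoV-2 Mpro protocol given as the model: E. coli-expressed C-His6 protease at 25 nM and substrate at 25 μM (Km 13.5 μM). Buffer pH 7.3 with 5 mM TCEP and 0.1% BSA; % inhibition versus controls fitted to variable-slope log(inhibitor)-response for IC50.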

The subject of a further data set is HCov OC43. Nature of the data set: HCoV OC43 cytopathic effect (CPE) assay, CellTiter Glo. The data set is classed as cell-based, human coronavirus (HCov) OC43.
Data set [3] can be described thus: Cytotoxicity in parallel to the 229E CPE assay, without virus infection, CellTiter Glo. The note with it: 229E CC50, without virus infection. On the technique in general: ATP-based viability assays read luminescence as a measure of living cells.
Method: as §1, §2
[4] abbreviates: Betacoronavirus 1, OC43, read-out: OC43 IC50 (uM) MEDIAN, median.

As a reminder, the CC50 is the concentration that lowers cell viability or growth by half. Broadly, the IC50 is the point on the concentration scale where inhibition reaches its midpoint. What is called EC50 is the midpoint of the concentration-response curve.

229E Mpro, sequence (P0C6X1 2966-3267): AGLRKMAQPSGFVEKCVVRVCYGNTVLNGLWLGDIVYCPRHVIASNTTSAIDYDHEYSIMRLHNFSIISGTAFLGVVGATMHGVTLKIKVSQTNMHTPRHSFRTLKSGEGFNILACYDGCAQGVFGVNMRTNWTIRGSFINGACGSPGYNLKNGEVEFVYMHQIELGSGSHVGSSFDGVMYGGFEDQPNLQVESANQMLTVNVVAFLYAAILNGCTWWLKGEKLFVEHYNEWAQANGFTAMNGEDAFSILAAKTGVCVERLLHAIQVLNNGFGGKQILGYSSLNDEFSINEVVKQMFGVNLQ

With `COc1cncc(C(C(=O)NC2CCCCC2)N(C(=O)[C@H]2C[C@@H](O)CN2C#N)c2ccc(C(C)(C)C)cc2)c1` (single isomer, unassigned) [679 Isomer 1], the CC50 in data set [1] was greater than 30 µM. The half-maximal inhibitory concentration (IC50) (in data set [2]; with HCov OC43 (setting [4])) was less than 2 µM each time. For the same compound, the EC50 with HCoV 229E (unidentified human coronavirus) and at 229E Mpro (229E Mpro EC50) was less than 2 µM in each case.
With `COc1cncc(C(C(=O)NC2CCCCC2)N(C(=O)[C@H]2C[C@@H](O)CN2C#N)c2ccc(C(C)(C)C)cc2)c1` (single isomer, unassigned) [679 Isomer 2], the cytotoxic concentration (CC50) in data set [1] was in the range of 10 to 30 µM. The IC50 in data set [2] was in the range of 10 to 30 µM; in the data set on HCov OC43 (read-out: OC43 IC50 (uM) MEDIAN, median), 2 to 10 µM. Moreover, the EC50 with HCoV 229E was 2 to 10 µM; at 229E Mpro (read-out: 229E Mpro EC50) it was less than 2 µM.
Turning to `CC(C)(C)c1ccc(N(C(=O)[C@H]2COCCN2C#N)C(C(=O)NC2CCCCC2)c2cccnc2)cc1` (single isomer, unassigned) [Compound 202 Isomer 2], in data set [3], the CC50 was greater than 30 µM. Moreover, the IC50 (in data set [2]; in the data set with HCov OC43 (setting [4])) was less than 2 µM in each case. In addition, the EC50 in the data set on HCoV 229E and on 229E Mpro (read-out: 229E Mpro EC50) was less than 2 µM throughout.
`C[C@@H]1C[C@H](C(=O)N(c2ccc(C(C)(C)C)cc2)C(C(=O)NC2CCCCC2)c2cccnc2)N(C#N)C1` (single isomer, unassigned) [Compound 232 Isomer 2] gave a CC50 in data set [3] of 10 to 30 µM. For the same compound, the IC50 (in data set [2]; in the data set with HCov OC43 (setting [4])) was 2 to 10 µM in each case. Also, the concentration giving a half-maximal response (EC50) in the data set on HCoV 229E (unidentified human coronavirus) and at 229E Mpro (229E Mpro EC50) was less than 2 µM throughout.
Turning to `CC1(C)C[C@H](C(=O)N(c2ccc(C(C)(C)C)cc2)C(C(=O)NC2CCCCC2)c2cccnc2)N(C#N)C1` (single isomer, unassigned) [Compound 268 Isomer 2], the CC50 in data set [3] was in the range of 10 to 30 µM. Moreover, the values for the IC50 (in data set [2]; in the data set with HCov OC43 (setting [4])) were less than 2 µM and 2 to 10 µM, respectively. The EC50 with HCoV 229E (unidentified human coronavirus) and at 229E Mpro (229E Mpro EC50) was less than 2 µM throughout.
In data set [3], `CC(C)(C)c1ccc(N(C(=O)c2cnc[nH]2)C(C(=O)NC2CCCCC2)c2cncnc2C#N)cc1` (centres unmarked) [Compound 103, N-(4-(tert-butyl)phenyl)-N-(1-(4-cyanopyrimidin-5-yl)-2-(cyclohexylamino)-2-oxoethyl)-1H-imidazole-5-carboxamide] came in with a CC50 greater than 30 µM. In addition, the IC50 in data set [2] was 10 to 30 µM. Moreover, the 50% effective concentration (EC50) fell in the range of 10 to 30 µM in the data set on HCoV 229E (unidentified human coronavirus) and 2 to 10 µM on 229E Mpro (229E Mpro EC50).
`CC(C)(C)c1ccc(C(C(=O)c2cnc[nH]2)C(C(=O)NC2CCCCC2)c2nccnc2C#N)cc1` (centres unmarked) [Compound 105] had a CC50 in data set [3] greater than 30 µM. For the same compound, the half-maximal inhibitory concentration (IC50) in data set [2] was greater than 30 µM. The EC50 with HCoV 229E (unidentified human coronavirus) lay in the range of 2 to 10 µM; on 229E Mpro (229E Mpro EC50), 10 to 30 µM.
With `Cc1nnsc1C(C(=O)NC1CCCCC1)N(C(=O)c1cnc[nH]1)c1ccc(C(C)(C)C)cc1` (centres unmarked) [Compound 109], in data set [3], the CC50 was greater than 30 µM. Further, the IC50 in data set [2] was greater than 30 µM. The EC50 in the data set with HCoV 229E (unidentified human coronavirus) and on 229E Mpro (229E Mpro EC50) was 2 to 10 µM each time.
As to `CC(C)(C)c1ccc(N(C(=O)c2cnc[nH]2)C(C(=O)NC2CCCCC2)c2cccnc2)c(C#N)n1` (centres unmarked) [Compound 117], the CC50 in data set [3] was greater than 30 µM. The IC50 in data set [2] is greater than 30 µM. The EC50 in the data set on HCoV 229E (unidentified human coronavirus) and on 229E Mpro (229E Mpro EC50) was 2 to 10 µM each time.
In the case of `CC(C)(C)c1ccc(N(C(=O)c2nsnc2Cl)C(C(=O)NC2CCCCC2)c2cccnc2)cc1` (centres unmarked) [Compound 123, N-(4-(tert-butyl)phenyl)-4-chloro-N-(2-(cyclohexylamino)-2-oxo-1-(pyridin-3-yl)ethyl)-1,2,5-thiadiazole-3-carboxamide], the CC50 in data set [3] is greater than 30 µM. Also, the IC50 in data set [2] is less than 2 µM. Further, the EC50 in the data set on HCoV 229E (unidentified human coronavirus) and on 229E Mpro (229E Mpro EC50) was less than 2 µM throughout.
As for `CC(C)(C)c1ccc(N(C(=O)c2nccnc2C#N)C(C(=O)NC2CCCCC2)c2cccnc2)cc1` (centres unmarked) [Compound 124, N-(4-(tert-butyl)phenyl)-3-cyano-N-(2-(cyclohexylamino)-2-oxo-1-(pyridin-3-yl)ethyl)pyrazine-2-carboxamide], in data set [3], the CC50 was greater than 30 µM. Moreover, the IC50 in data set [2] was greater than 30 µM. Moreover, the EC50 with HCoV 229E (unidentified human coronavirus) and at 229E Mpro (229E Mpro EC50) was 10 to 30 µM throughout.
`CC(C)(C)c1ccc(N(C(=O)C2CN(C#N)C2)C(C(=O)NC2CCCCC2)c2cccnc2)cc1` (centres unmarked) [Compound 125, N-(4-tert-butylphenyl)-1-cyano-N-[2-(cyclohexylamino)-2-oxo-1-(3-pyridyl)ethyl]azetidine-3-carboxamide] came in with a CC50 in data set [3] of 10 to 30 µM. Also, the IC50 in data set [2] was 10 to 30 µM. In addition, the figures for the EC50 with HCoV 229E (unidentified human coronavirus) and on 229E Mpro (229E Mpro EC50) were 2 to 10 µM and 10 to 30 µM, respectively.
